Reference: patent US9328374B2, “Selective culture medium and method for detecting carbapenem-resistant bacteria in a test sample” (Institut National de la Sante et de la Recherche Medicale …, priority 2011, dated 2016)
Like-named read-outs stand apart in the source and are kept apart here.

Test system: K. pneumoniae
Experiment: MIC of imipenem, ertapenem and meropenem
Format: cell-based, Klebsiella pneumoniae
Conditions: Klebsiella pneumoniae, read-out: MIC

Structure (SMILES): C[C@@H](O)[C@H]1C(=O)N2C(C(=O)O)=C(S[C@@H]3CN[C@H](C(=O)Nc4cccc(C(=O)O)c4)C3)[C@H](C)[C@H]12 [ETP, ertapenem]
- MIC (K. pneumoniae 1 OMA (NDM-1 + CTX-M-15 + OXA-1 + OXA-9)): > 32 µg/mL
- MIC (K. pneumoniae 2 OLA (NDM-1 + OXA-1)): 6 µg/mL
- MIC (K. pneumoniae 7 AFR (NDM-1 + OXA-1 + CTX-M-15 + CMY-6 + TEM-1)): > 32 µg/mL
- MIC (K. pneumoniae 7AFR, NDM-1 + TEM-1 + CTX-M-15 + CMY-6 + OXA-1): > 32 µg/mL
- MIC (K. pneumoniae 0227, SHV-1, non-carbapenemase producer): 0.008 µg/mL
- MIC (K. pneumoniae 588, KPC-2 + TEM-1 + SHV-11 + OXA-9): 32 µg/mL
- MIC (K. pneumoniae 1022, SHV-2a + SHV-28, non-carbapenemase producer): 0.016 µg/mL
- MIC (K. pneumoniae 1025 (CTX-M-14 + TEM-1 + SHV-11)): 0.016 µg/mL
- MIC (K. pneumoniae 1025, CTX-M-14 + TEM-1 + SHV-11, non-carbapenemase producer): 0.016 µg/mL
- MIC (K. pneumoniae 2303, KPC-2 + SHV-11): > 32 µg/mL
- MIC (K. pneumoniae 6642 GEN (NDM-1 + CTX-M-15 + OXA-1 + OXA-10)): 16 µg/mL
- MIC (K. pneumoniae 6642 GEN, NDM-1 + CTX-M-15 + OXA-1 + OXA-10): 16 µg/mL
- MIC (K. pneumoniae 6759 GEN (NDM-1 + CTX-M-15 + OXA-1 + OXA-9 + OXA-10 + CMY16)): > 32 µg/mL
- MIC (K. pneumoniae 6759 GEN, NDM-1 + CTX-M-15 + CMY-16 + OXA-1 + OXA-9 + OXA-10): > 32 µg/mL
- MIC (K. pneumoniae 7725 (SHV-1)): 0.006 µg/mL
- MIC (K. pneumoniae 7725, SHV-1, non-carbapenemase producer): 0.006 µg/mL
- MIC (K. pneumoniae 10112, CTX-M-15 + TEM-1 + SHV-11, non-carbapenemase producer): 0.016 µg/mL
- MIC (K. pneumoniae 0404020, VIM-1+ SHV-5): > 32 µg/mL
- MIC (K. pneumoniae 0404024, VIM-1): > 32 µg/mL
- MIC (K. pneumoniae 0511135, VIM-1+ SHV-12): > 32 µg/mL
- MIC (K. pneumoniae 648236 (SHV-2a)): 2 µg/mL
- MIC (K. pneumoniae 648236, SHV-2a, non-carbapenemase producer, porin deficiency): 2 µg/mL
- MIC (K. pneumoniae 0709121, IMP-1): 3 µg/mL
- MIC (K. pneumoniae 0709124, IMP-1 + TEM-15): 3 µg/mL
- MIC (K. pneumoniae 0709125, IMP-1 + TEM-1 + SHV-12): 4 µg/mL
- MIC (K. pneumoniae 0709127, IMP-1 + TEM-1): 4 µg/mL
- MIC (K. pneumoniae A28006, KPC-2 + TEM-1 + CTX-M-2 + SHV-11): 24 µg/mL
- MIC (K. pneumoniae A33504, KPC-2 + TEM-1 + SHV-11 + CTX-M-2 + OXA-9): > 32 µg/mL
- MIC (K. pneumoniae AEL, OXA-48 + CTX-M-15 + SHV-28 + OXA-1): 6 µg/mL
- MIC (K. pneumoniae ALE (CTX-M-15 + SHV-1)): > 32 µg/mL
- MIC (K. pneumoniae ALE, CTX-M-15 + SHV-1, non-carbapenemase producer, porin deficiency): > 32 µg/mL
- MIC (K. pneumoniae AMS (OXA-48 + TEM-1 + CTX-M-15 + OXA-1)): 2 µg/mL
- MIC (K. pneumoniae AMS, OXA-48 + TEM-1 + CTX-M-15 + OXA-1): 2 µg/mL
- MIC (K. pneumoniae BAJ (OXA-48 + TEM-1 + CTX-M-15 + SHV-28)): 1.5 µg/mL
- MIC (K. pneumoniae BAJ, OXA-48 + TEM-1 + CTX-M-15 + SHV-28): 1.5 µg/mL
- MIC (K. pneumoniae BED (CTX-M-15 + TEM-1 + SHV-1; Table 8: SHV-11)): > 32 µg/mL
- MIC (K. pneumoniae BED, CTX-M-15 + TEM-1 + SHV-11, non-carbapenemase producer, porin deficiency): > 32 µg/mL
- MIC (K. pneumoniae BEL (OXA-48)): 4 µg/mL
- MIC (K. pneumoniae BEL, OXA-48): 4 µg/mL
- MIC (K. pneumoniae BEN (OXA-48 + TEM-1 + CTX-M-15 + SHV-28)): 1 µg/mL
- MIC (K. pneumoniae BEN, OXA-48 + TEM-1 + CTX-M-15 + SHV-28): 1 µg/mL
- MIC (K. pneumoniae BER (TEM-1 + SHV-28)): 4 µg/mL
- MIC (K. pneumoniae BER, SHV-28 + TEM-1, non-carbapenemase producer, porin deficiency): 4 µg/mL
- MIC (K. pneumoniae BEY (OXA-48 + CTX-M-15 + TEM-1)): 0.38 µg/mL
- MIC (K. pneumoniae BEY, OXA-48 + TEM-1 + CTX-M-15): 0.38 µg/mL
- MIC (K. pneumoniae BIC (OXA-48)): 2 µg/mL
- MIC (K. pneumoniae BIC, OXA-48): 2 µg/mL
- MIC (K. pneumoniae BOU, OXA-48): 0.5 µg/mL
- MIC (K. pneumoniae CHA (OXA-48 + TEM-1)): 1 µg/mL
- MIC (K. pneumoniae CHA, OXA-48 + TEM-1): 1 µg/mL
- MIC (K. pneumoniae COL (KPC-2 + TEM-1 + SHV-1 + CTX-M-15)): 4 µg/mL
- MIC (K. pneumoniae COO (CTX-M-15 + SHV28)): > 32 µg/mL
- MIC (K. pneumoniae COO, CTX-M-15 + SHV-28, non-carbapenemase producer, porin deficiency): > 32 µg/mL
- MIC (K. pneumoniae DAL (OXA-48 + CTX-M-15 + TEM-1)): 2 µg/mL
- MIC (K. pneumoniae DAL, OXA-48 + TEM-1 + CTX-M-15): 2 µg/mL
- MIC (K. pneumoniae DIA, OXA-48 + TEM-1b + CTX-M-15 + SHV-11 + OXA-1): > 32 µg/mL
- MIC (K. pneumoniae DUW, OXA-48 + TEM-1 + CTX-M-15 + SHV-28): 32 µg/mL
- MIC (K. pneumoniae EGY (OXA-48 + CTX-M-15)): 3 µg/mL
- MIC (K. pneumoniae EGY, OXA-48 + CTX-M-15): 3 µg/mL
- MIC (K. pneumoniae ELK (OXA-48 + TEM-1 + CTX-M-15 + SHV-11)): 3 µg/mL
- MIC (K. pneumoniae ELK, OXA-48 + TEM-1 + CTX-M-15 + SHV-11): 3 µg/mL
- MIC (K. pneumoniae ENN, VIM-1+ SHV-5): 1.5 µg/mL
- MIC (K. pneumoniae FOS (CTX-M-15 + TEM-1 + SHV-11)): > 32 µg/mL
- MIC (K. pneumoniae FOS, CTX-M-15 + TEM-1 + SHV-11, non-carbapenemase producer, porin deficiency): > 32 µg/mL
- MIC (K. pneumoniae GES, KPC-2 + TEM-1 + SHV-11): 12 µg/mL
- MIC (K. pneumoniae HOL (OXA-181 + CTX-M-15)): 4 µg/mL
- MIC (K. pneumoniae HOL, OXA-181 + CTX-M-15): 4 µg/mL
- MIC (K. pneumoniae HPA, OXA-48 + TEM-1 + CTX-M-15 + OXA-1): > 32 µg/mL
- MIC (K. pneumoniae IND (NDM-1 + OXA-1 + CTX-M-15)): 8 µg/mL
- MIC (K. pneumoniae KAM, KPC-3 + TEM-1 + SHV-11): 12 µg/mL
- MIC (K. pneumoniae KDH (DHA-2)): 0.5 µg/mL
- MIC (K. pneumoniae KI2, NDM-1 + CTX-M-15 + OXA-1): 8 µg/mL
- MIC (K. pneumoniae KIE, NDM-1 + SHV-38 + CMY-16 + OXA-10): 2 µg/mL
- MIC (K. pneumoniae KPN (CTX-M-15)): 0.12 µg/mL
- MIC (K. pneumoniae KPN, CTX-M-15, non-carbapenemase producer): 0.012 µg/mL
- MIC (K. pneumoniae LEG (CTX-M-15 + TEM-1 + SHV-12)): > 32 µg/mL
- MIC (K. pneumoniae LEG, CTX-M-15 + TEM-1 + SHV-12, non-carbapenemase producer, porin deficiency): > 32 µg/mL
- MIC (K. pneumoniae LIB (OXA-48)): > 32 µg/mL
- MIC (K. pneumoniae LIB, OXA-48): 16 µg/mL
- MIC (K. pneumoniae LIE, KPC-2 + TEM-2 + OXA-9): > 32 µg/mL
- MIC (K. pneumoniae LOU, OXA-48): 16 µg/mL
- MIC (K. pneumoniae MAD (VIM-1 + CTX-M-3)): 0.5 µg/mL
- MIC (K. pneumoniae MAD, VIM-1+ CTX-M-3): 0.5 µg/mL
